Remaining activity data for three compounds are collected here from patent publication US20240246942A1, “KINASE INHIBITORS FOR THE TREATMENT OF NEURODEGENERATIVE DISEASES” (priority 2020, published 2024).

Each structure is given as a SMILES string.

Experiment in all cases: biochemical
The target of assay [1] is T1, panel of 374 wild-type kinases (Homo sapiens, UniProt P04626).
T1 construct: purchased Reaction Biology Corporation
The settings on record: read-out: % Enzyme Activity (relative to DMSO controls), ERBB2/HER2.

For assay [2], the target named is T2, panel of 374 wild-type kinases (Homo sapiens, UniProt O94921).
T2 construct: purchased Reaction Biology Corporation
Conditions: read-out: % Enzyme Activity (relative to DMSO controls), CDK14/cyclin Y (PFTK1).

For assay [3], the target named is T3, panel of 374 wild-type kinases (Homo sapiens, UniProt P54756).
T3 construct: purchased Reaction Biology Corporation
Conditions: read-out: % Enzyme Activity (relative to DMSO controls), EPHA5.

The target in assay [4] is T4, panel of 374 wild-type kinases (Homo sapiens, UniProt Q00537).
T4 construct: purchased Reaction Biology Corporation
The settings on record: read-out: % Enzyme Activity (relative to DMSO controls), CDK17/cyclin Y (PCTK2).

Assay [5] addresses T5, panel of 374 wild-type kinases (Homo sapiens, UniProt Q9H2X6).
T5 construct: purchased Reaction Biology Corporation
Conditions: read-out: % Enzyme Activity (relative to DMSO controls), HIPK2.

The target of assay [6] is T6, panel of 374 wild-type kinases (Homo sapiens, UniProt Q9BWU1).
T6 construct: purchased Reaction Biology Corporation
Conditions: read-out: % Enzyme Activity (relative to DMSO controls), CDK19/cyclin C.

The target in assay [7] is T7, panel of 374 wild-type kinases (Homo sapiens, UniProt Q9BUB5).
T7 construct: purchased Reaction Biology Corporation
Conditions: read-out: % Enzyme Activity (relative to DMSO controls), MNK1.

For assay [8], the target named is T8, panel of 374 wild-type kinases (Homo sapiens, UniProt P48729).
T8 construct: purchased Reaction Biology Corporation
Conditions: read-out: % Enzyme Activity (relative to DMSO controls), CK1a1.

Assay [9] concerns the target T9, panel of 374 wild-type kinases (Homo sapiens, UniProt P49760).
T9 construct: purchased Reaction Biology Corporation
Conditions: read-out: % Enzyme Activity (relative to DMSO controls), CLK2.

Assay [10] concerns the target T10, panel of 374 wild-type kinases (Homo sapiens, UniProt Q15746).
T10 construct: purchased Reaction Biology Corporation
The settings on record: read-out: % Enzyme Activity (relative to DMSO controls), MLCK/MYLK.

Assay [11] has as its target T11, panel of 374 wild-type kinases (Homo sapiens, UniProt P45983).
T11 construct: purchased Reaction Biology Corporation
The settings on record: JNK1, read-out: % Enzyme Activity (relative to DMSO controls).

Assay [12] has as its target T12, panel of 374 wild-type kinases (Homo sapiens, UniProt Q9Y4K4).
T12 construct: purchased Reaction Biology Corporation
The settings on record: read-out: % Enzyme Activity (relative to DMSO controls), KHS/MAP4K5.

Assay [13] addresses T13, panel of 374 wild-type kinases (Homo sapiens, UniProt Q8IW41).
T13 construct: purchased Reaction Biology Corporation
T13 sequence (Q8IW41 1-473): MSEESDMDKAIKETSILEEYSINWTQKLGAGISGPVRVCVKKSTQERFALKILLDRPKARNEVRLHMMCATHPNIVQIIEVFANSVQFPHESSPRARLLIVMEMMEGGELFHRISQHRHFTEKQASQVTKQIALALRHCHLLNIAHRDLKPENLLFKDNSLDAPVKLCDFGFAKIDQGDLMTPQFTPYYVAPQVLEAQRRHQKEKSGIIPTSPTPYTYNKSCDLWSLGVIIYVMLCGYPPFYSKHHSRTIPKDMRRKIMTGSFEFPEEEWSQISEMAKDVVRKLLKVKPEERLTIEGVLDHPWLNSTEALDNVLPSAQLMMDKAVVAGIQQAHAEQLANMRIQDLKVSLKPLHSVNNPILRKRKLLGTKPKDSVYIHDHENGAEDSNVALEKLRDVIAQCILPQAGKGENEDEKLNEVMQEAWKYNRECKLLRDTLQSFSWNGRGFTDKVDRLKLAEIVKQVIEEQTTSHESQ
The settings on record: read-out: % Enzyme Activity (relative to DMSO controls), MAPKAPK5/PRAK.

For assay [14], the target named is T14, panel of 374 wild-type kinases (Homo sapiens, UniProt P21802).
T14 construct: purchased Reaction Biology Corporation
Conditions: read-out: % Enzyme Activity (relative to DMSO controls), FGFR2.

Assay [15] has as its target T15, panel of 374 wild-type kinases (Homo sapiens, UniProt Q76MJ5).
T15 construct: purchased Reaction Biology Corporation
Conditions: read-out: % Enzyme Activity (relative to DMSO controls), ERN2/IRE2.

In assay [16] the target is T16, panel of 374 wild-type kinases (Homo sapiens, UniProt Q9H0K1).
T16 construct: purchased Reaction Biology Corporation
The settings on record: read-out: % Enzyme Activity (relative to DMSO controls), kinase SIK2.

In assay [17] the target is T17, panel of 374 wild-type kinases (Homo sapiens, UniProt P09619).
T17 construct: purchased Reaction Biology Corporation
The settings on record: read-out: % Enzyme Activity (relative to DMSO controls), kinase PDGFRb.

The target of assay [18] is T18, panel of 374 wild-type kinases (Homo sapiens, UniProt P07947).
T18 construct: purchased Reaction Biology Corporation
The settings on record: read-out: % Enzyme Activity (relative to DMSO controls), kinase YES/YES1.

The target in assay [19] is T19, panel of 374 wild-type kinases (Homo sapiens, UniProt Q9P289).
T19 construct: purchased Reaction Biology Corporation
The settings on record: read-out: % Enzyme Activity (relative to DMSO controls), MST4.

The target in assay [20] is T20, panel of 374 wild-type kinases (Homo sapiens, UniProt P49137).
T20 construct: purchased Reaction Biology Corporation
Conditions: read-out: % Enzyme Activity (relative to DMSO controls), MAPKAPK2.

T16 sequence (Q9H0K1 whole entry): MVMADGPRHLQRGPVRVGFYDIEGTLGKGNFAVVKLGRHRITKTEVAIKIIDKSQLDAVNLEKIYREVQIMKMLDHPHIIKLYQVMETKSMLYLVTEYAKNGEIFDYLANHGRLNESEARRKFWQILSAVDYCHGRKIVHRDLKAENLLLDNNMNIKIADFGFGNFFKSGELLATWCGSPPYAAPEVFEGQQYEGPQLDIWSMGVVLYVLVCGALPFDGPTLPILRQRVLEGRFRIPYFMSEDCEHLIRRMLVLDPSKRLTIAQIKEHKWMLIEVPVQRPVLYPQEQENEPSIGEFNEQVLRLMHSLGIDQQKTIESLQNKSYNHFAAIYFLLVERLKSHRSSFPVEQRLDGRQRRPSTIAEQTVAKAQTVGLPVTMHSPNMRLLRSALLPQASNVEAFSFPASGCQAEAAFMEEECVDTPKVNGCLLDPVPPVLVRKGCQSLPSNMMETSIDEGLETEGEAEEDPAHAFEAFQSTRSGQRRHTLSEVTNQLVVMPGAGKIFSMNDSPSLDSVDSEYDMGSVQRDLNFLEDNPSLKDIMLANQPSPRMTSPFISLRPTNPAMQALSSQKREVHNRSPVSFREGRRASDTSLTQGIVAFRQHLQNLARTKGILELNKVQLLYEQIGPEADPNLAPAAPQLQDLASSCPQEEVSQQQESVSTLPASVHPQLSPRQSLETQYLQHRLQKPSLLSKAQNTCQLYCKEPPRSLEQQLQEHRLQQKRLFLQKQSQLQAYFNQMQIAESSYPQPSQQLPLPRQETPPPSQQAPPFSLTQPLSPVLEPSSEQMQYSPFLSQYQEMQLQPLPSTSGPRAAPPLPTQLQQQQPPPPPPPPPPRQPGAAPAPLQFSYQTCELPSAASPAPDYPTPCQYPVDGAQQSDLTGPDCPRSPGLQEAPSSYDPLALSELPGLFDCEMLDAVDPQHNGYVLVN
T11 sequence (P45983 whole entry): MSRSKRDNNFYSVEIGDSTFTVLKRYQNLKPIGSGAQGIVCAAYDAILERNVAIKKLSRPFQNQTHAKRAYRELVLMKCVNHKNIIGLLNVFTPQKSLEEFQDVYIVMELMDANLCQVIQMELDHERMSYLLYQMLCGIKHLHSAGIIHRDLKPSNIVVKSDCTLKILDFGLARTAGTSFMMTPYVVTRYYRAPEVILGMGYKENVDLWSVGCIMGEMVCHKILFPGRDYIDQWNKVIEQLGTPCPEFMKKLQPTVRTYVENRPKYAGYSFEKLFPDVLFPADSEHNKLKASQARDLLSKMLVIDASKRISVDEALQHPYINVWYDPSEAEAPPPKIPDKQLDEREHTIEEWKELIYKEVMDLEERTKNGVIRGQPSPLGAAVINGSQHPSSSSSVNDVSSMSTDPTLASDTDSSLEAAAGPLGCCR
T12 sequence (Q9Y4K4 whole entry): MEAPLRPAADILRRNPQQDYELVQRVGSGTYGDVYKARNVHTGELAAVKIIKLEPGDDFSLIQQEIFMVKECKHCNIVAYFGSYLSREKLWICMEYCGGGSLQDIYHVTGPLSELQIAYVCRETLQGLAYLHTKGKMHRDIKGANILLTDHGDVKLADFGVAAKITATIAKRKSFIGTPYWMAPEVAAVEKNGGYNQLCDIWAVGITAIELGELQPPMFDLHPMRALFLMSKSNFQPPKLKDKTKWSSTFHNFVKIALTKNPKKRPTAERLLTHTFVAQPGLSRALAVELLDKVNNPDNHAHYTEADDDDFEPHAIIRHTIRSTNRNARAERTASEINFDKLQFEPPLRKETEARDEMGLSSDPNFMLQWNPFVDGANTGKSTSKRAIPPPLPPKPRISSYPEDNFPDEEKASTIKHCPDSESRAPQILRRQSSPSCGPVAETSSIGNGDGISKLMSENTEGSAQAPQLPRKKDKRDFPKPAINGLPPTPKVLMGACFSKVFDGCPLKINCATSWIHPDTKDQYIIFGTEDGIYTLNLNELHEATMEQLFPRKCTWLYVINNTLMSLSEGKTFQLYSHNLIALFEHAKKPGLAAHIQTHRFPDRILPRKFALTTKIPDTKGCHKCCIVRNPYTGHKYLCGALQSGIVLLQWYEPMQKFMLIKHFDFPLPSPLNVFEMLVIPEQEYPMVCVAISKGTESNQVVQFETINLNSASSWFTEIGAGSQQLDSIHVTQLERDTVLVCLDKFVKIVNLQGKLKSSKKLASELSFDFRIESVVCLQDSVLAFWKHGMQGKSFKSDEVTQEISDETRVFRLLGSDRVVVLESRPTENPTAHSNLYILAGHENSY
T15 sequence (Q76MJ5 35-926): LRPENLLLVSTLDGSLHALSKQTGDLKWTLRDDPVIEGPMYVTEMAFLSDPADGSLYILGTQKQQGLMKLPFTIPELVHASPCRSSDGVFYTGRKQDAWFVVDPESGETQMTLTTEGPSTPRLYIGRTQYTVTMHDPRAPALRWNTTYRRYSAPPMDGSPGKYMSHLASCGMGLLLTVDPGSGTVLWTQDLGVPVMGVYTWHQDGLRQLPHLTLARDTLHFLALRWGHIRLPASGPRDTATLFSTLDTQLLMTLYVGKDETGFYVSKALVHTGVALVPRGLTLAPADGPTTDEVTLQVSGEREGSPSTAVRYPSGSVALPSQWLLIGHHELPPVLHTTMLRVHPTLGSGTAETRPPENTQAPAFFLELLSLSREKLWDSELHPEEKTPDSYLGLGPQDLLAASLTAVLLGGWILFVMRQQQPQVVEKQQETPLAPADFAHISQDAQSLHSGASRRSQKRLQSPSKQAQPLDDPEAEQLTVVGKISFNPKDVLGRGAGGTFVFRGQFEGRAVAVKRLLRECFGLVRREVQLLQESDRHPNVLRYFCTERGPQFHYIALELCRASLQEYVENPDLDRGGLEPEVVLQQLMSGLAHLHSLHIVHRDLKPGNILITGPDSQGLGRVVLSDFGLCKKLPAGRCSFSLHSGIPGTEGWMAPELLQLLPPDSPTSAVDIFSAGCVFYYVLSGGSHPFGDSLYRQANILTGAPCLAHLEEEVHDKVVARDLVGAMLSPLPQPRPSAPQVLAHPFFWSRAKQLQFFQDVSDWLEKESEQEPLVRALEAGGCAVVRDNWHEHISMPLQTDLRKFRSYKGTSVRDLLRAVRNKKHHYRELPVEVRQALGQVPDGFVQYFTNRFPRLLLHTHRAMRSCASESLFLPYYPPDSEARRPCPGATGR
T5 sequence (Q9H2X6 whole entry): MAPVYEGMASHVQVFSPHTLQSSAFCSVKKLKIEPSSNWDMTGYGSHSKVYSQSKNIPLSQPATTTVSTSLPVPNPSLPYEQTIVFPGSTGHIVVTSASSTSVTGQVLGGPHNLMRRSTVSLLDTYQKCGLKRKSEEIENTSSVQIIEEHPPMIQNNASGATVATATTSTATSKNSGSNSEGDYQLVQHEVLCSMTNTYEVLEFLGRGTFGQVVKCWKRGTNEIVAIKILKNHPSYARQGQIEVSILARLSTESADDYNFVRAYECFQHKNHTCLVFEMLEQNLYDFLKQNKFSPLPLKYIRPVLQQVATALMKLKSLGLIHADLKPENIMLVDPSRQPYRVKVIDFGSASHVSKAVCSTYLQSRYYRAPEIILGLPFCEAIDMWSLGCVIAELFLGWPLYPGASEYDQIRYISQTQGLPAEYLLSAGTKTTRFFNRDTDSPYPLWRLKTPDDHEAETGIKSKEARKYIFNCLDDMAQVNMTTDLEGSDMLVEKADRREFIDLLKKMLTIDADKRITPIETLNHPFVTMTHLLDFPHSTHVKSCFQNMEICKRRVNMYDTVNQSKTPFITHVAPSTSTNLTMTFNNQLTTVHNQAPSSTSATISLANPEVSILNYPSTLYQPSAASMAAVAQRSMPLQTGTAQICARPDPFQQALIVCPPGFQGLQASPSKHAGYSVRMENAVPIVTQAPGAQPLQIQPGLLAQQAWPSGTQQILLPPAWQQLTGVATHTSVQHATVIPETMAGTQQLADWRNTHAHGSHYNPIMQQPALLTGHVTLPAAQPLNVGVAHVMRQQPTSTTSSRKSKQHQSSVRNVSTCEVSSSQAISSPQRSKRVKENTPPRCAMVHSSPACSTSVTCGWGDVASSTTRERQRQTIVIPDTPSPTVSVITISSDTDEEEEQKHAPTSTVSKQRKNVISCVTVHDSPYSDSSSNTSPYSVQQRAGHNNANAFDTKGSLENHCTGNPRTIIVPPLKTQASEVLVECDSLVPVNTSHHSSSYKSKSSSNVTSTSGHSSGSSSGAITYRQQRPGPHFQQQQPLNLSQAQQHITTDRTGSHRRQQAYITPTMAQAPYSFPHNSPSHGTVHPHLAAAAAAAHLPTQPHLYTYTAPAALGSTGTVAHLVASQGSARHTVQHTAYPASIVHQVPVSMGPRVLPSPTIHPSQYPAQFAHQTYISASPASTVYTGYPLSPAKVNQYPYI
T4 sequence (Q00537 whole entry): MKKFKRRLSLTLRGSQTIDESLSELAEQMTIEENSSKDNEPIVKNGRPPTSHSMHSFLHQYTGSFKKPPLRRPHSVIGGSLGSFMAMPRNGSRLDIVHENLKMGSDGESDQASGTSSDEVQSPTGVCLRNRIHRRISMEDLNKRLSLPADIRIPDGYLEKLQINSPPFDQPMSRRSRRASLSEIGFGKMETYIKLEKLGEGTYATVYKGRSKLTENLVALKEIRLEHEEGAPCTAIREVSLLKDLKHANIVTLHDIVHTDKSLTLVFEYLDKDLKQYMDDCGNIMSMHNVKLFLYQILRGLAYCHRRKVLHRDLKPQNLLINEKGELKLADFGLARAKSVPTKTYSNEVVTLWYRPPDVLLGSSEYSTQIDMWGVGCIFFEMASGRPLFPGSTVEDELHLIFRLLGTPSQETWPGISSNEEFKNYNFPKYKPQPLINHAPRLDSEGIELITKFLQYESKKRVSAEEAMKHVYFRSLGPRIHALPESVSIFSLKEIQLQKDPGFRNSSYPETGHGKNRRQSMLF

On to `O=C(Nc1cnn(-c2csc(C(=O)NC3COC3)c2)c1)Nc1ccccc1Cl` [Compound 17, 4-(4-(3-(2-chlorophenyl)ureido)-1H-pyrazol-1-yl)-N-(oxetan-3-yl)thiophene-2-carboxamide], for which the remaining activity at 5 µM in assay [1] is 103%; in assay [2], 107%; in assay [3], 96.9%; in assay [4] it was 106%; in assay [5], 102%; in assay [6], 105%. The remaining activity at 5 µM in assay [7] was determined as 94.3%; in assay [8], 98.5%; in assay [9] it was 103%; in assay [10], 97.5%; in [11], 57.6%; in assay [12], 99.1%. Besides, the remaining activity at 5 µM was 92.8% in assay [13]; 95.6% in [14]; 100% in assay [15]; 97% in assay [16]; 107% in assay [17]; 96.5% in [18]. Moreover, the figures for the remaining activity at 5 µM in assay [19] and in assay [20] were 98.3% and 97.1%, respectively.
`O=C(Nc1cnn(-c2csc(C(=O)NC3COC3)c2)c1)Nc1c(F)cccc1Cl` [Compound 25, 4-(4-(3-(2-chloro-6-fluorophenyl)ureido)-1H-pyrazol-1-yl)-N-(oxetan-3-yl)thiophene-2-carboxamide]: the remaining activity at 5 µM in assay [1] turned out to be 97%; in assay [2], 110%; in [3], 95%; in assay [4], 96%; in assay [5], 92.6%; in assay [6] it was 96.2%. For the same compound, the remaining activity at 5 µM in assay [7] was 103%; in assay [8], 76.6%; in assay [9], 112%; in [10], 95.9%; in assay [11], 49.1%; in [12], 103%. Further, the remaining activity at 5 µM came to 99.7% in assay [13]; 103% in assay [14]; 100% in assay [15]; 95.8% in assay [16]; 101% in assay [17]; 91% in [18]. The remaining activity at 5 µM was determined as 71.4% in assay [19] and 99.8% in assay [20].
Take `Cc1sc(C(=O)NC2COC2)cc1-n1cc(NC(=O)Nc2c(F)cccc2Cl)cn1` [Compound 27, 4-(4-(3-(2-chloro-6-fluorophenyl)ureido)-1H-pyrazol-1-yl)-5-methyl-N-(oxetan-3-yl)thiophene-2-carboxamide]: the remaining activity at 10 µM in [1] (10 uM) came out at 64.1%; in assay [2] (10 uM) it was 100%; in assay [3] (10 uM) it was 106%; in assay [4] (10 uM), 102%; in [5] (10 uM), 103%; in assay [6] (10 uM), 98.1%. For the same compound, the remaining activity at 10 µM in assay [7] (10 uM) came to 94.2%; in [8] (10 uM), 81.1%; in assay [9] (10 uM) it was 105%; in assay [10] (10 uM), 103%; in assay [11] (10 uM), 76.3%; in assay [12] (10 uM) it was 98.4%. Besides, the remaining activity at 10 µM in [13] (10 uM) amounted to 96.5%; in assay [14] (10 uM), 106%; in assay [15] (10 uM), 80.7%; in assay [16] (10 uM) it was 89.8%; in assay [17] (10 uM), 97.9%; in assay [18] (10 uM), 81.4%. Besides, the results for the remaining activity at 10 µM in assay [19] (10 uM) and in assay [20] (10 uM) were 72.4% and 93.6%, respectively.
